Here are results for 17 molecules from patent US8628767B2, “Purine nucleoside phosphorylase as enzymatic activator of nucleoside prodrugs” (priority 2008, dated 2014).

Changes are numbered by the printed parent chain. Names may count otherwise. Where two headings read alike, the source gives them in different places. A value given as a limit tells only on which side of the number the result lay.

The target of one data set is E. coli PNP (Escherichia coli, UniProt P0ABP8). Kind of data set: Substrate cleavage by wild-type E. coli PNP (HPLC). In kind it is biochemical. The conditions noted are these: 100 micromolar substrate, HPLC separation of base from nucleoside. The protocol:
(§1) The method quantitatively measures the cleavage of substrates in vitro. The purine analog nucleosides (0.1 mM in 500 μl of 100 mM HEPES, pH 7.4, 50 mM potassium phosphate) are combined with 100 μg/ml Tv-PNP or wild-type E. coli PNP. The reaction mixtures are incubated at 25° C. for 1 hour, and the reactions stopped by boiling each sample for 2 minutes. Protein concentration and time of assay are varied depending on activity of enzyme for a particular substrate. Each sample is analyzed by reverse phase HPLC to measure conversion from substrate to product. The nucleoside and purine analogs are eluted from a Spherisorb ODSI (5 μm) column (Keystone Scientific, Inc., State College, Pa.) with a solvent containing 50 mM ammonium dihydrogen phosphate (95%) and acetonitrile (5%). Products are detected by absorbance at 254 nm, and are identified by comparing their retention times and absorption spectra with authentic control samples.
Numerous compounds are tested for efficiency as substrate for Tv-PNP in parallel comparison with E. coli PNP. […] The enzymes are incubated with 100 micromolar of each compound listed in the table and the rate of enzymatic cleavage is determined by HPLC separation of the base from the nucleoside.

Data set [1] in a line: Tolerated dose of MeP-dR in mice. In kind it is in vivo. The text has this:
The formula of Freidenreich et al., Cancer Chemother. Rep., 50:219-244, (1966) is optionally used to determine the maximum tolerated dose of substrate for a human subject. […] This amount or slightly less is expected to maximize tumor cell killing in humans without killing the subject thereby generating a favorable efficacy to safety profile. This standard of effectiveness is accepted in the field of cancer therapy. More preferably, a drug levels administered range from about 10% to 1% of the maximum tolerated dosage (for example, 7.5 mg/m^2-0.75 mg/m^2). It is understood that modes of administration that permit the substrate to remain localized at or near the site of the tumor will be effective at lower doses than systemically administered substrates.

Data set [2] relates to T. vaginalis PNP. Kind of data set: Substrate cleavage by wild-type Tv-PNP (HPLC). In kind it is biochemical, Trichomonas vaginalis. The conditions noted are these: for rate of enzymatic cleavage by T. vaginalis PNP: 100 micromolar substrate, HPLC separation of base from nucleoside; for activity of Tv-PNP as compared to wild-type E. coli PNP: summary of Table 1. The protocol: as §1
Numerous compounds are tested for efficiency as substrate for Tv-PNP in parallel comparison with E. coli PNP. The compounds include various analogs of adenosine, of inosine, of MeP-dR, and of fluoro- or chloro-substituted adenosine. The enzymes are incubated with 100 micromolar of each compound listed in the table and the rate of enzymatic cleavage is determined by HPLC separation of the base from the nucleoside. […] It is appreciated that the greater biological activity of the Tv-PNP enzyme allows for greater activity in impairing abnormal cell growth when the Tv-PNP is used for treatment of pathological conditions using F-araA as a prodrug substrate.

In data set [3] the test system is tumor expressing wild-type E. coli PNP enzyme. Conditions: cited from earlier work.
Data set [4] relates to T. vaginalis PNP. The conditions noted are these: Wang et al.; cited from earlier work.
Data set [5] can be described thus: Cleavage of F-araA by PNPs of various origins (HPLC). The class given is biochemical. The conditions noted are these: for F-araA rate of cleavage: 100 μM F-araA, enzymes of various purities.
Data set [6] is described as follows: Cleavage of MeP-dR by PNPs of various origins (HPLC). In kind it is biochemical. Conditions: 100 μM MeP-dR, enzymes of various purities.
The mark [7] stands for this setting: equimolar quantities of substrate.

Chain of E. coli PNP (P0ABP8 whole entry): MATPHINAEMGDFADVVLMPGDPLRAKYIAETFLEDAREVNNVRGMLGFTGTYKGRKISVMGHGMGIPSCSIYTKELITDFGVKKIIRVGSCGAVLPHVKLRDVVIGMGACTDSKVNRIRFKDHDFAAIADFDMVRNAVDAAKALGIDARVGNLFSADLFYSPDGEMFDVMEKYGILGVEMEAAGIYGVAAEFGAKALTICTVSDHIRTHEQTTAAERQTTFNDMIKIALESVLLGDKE

In the case of `Cc1ncnc2c1ncn2[C@H]1C[C@H](O)[C@@H](CO)O1` [9-(2-deoxy-β-D-ribofuranosyl]-6-methylpurine], on E. coli PNP, the “rate of enzymatic cleavage by E. coli PNP” value (“rate … by E. coli PNP” for short) is recorded as 528,000 nanomoles per milligrams per hour. The toxicity result in data set [1] (mice, systemic, 25 mg per kg per day for 9 days (9 doses total)) is given as “some toxicity but no lethality”. In addition, in data set [1] (mouse, in vivo, 25 mg/kg), the “human dosage (maximum tolerated dose) by formula of Freidenreich et al.” value is given as 75 mg/m^2. In the data set on T. vaginalis PNP [2], the “rate of enzymatic cleavage by T. vaginalis PNP” value (“rate … by T. vaginalis PNP” for short) was 484,000 nanomoles per milligrams per hour.

Take `Nc1nc(F)nc2c1ncn2[C@@H]1O[C@H](CO)[C@@H](O)[C@@H]1O` [9-(β-D-arabinofuranosyl)-2-fluoroadenine, reference compound]: the “rate … by E. coli PNP” value at E. coli PNP was 1,250 nanomoles per milligrams per hour. Also, in the data set with T. vaginalis PNP [2], the “rate … by T. vaginalis PNP” value is 32,000 nanomoles per milligrams per hour and the “activity of Tv-PNP as compared to wild-type E. coli PNP” value was “more activity”. For the same molecule, in the data set on T. vaginalis PNP [2] (Tv-PNP rate / E. coli PNP rate), the “cleavage rate by Tv-PNP relative to E. coli PNP” value is listed as “approximately 23 times”. Further, in the data set on T. vaginalis PNP [2] (Vmax/Km ratio), the “catalytic efficiency of Tv-PNP relative to E. coli PNP” value was 25 fold. For the same molecule, the tumor response result in data set [3] was “complete responses”. The “activity of Tv-PNP towards substrate, conventional understanding” value in the data set with T. vaginalis PNP [4] was “does not have appreciable activity”.

On to `Nc1nc(F)nc2c1ncn2[C@@H]1O[C@@H](CO)[C@@H](O)[C@H]1O` [9-α-L-lyxofuranosyl-2-F-adenine, 9-(α-L-lyxofuranosyl)-2-fluoroadenine], for which the “rate … by E. coli PNP” value on E. coli PNP is 7,800 nanomoles per milligrams per hour. In the data set with T. vaginalis PNP [2], the “rate … by T. vaginalis PNP” value is listed as 28,200 nanomoles per milligrams per hour and the “activity of Tv-PNP as compared to wild-type E. coli PNP” value was “more activity”.

Take `Cc1ncnc2c1ncn2[C@@H]1O[C@@H](CO)[C@@H](O)[C@H]1O` [9-α-L-lyxofuranosyl-6-methylpurine]: on E. coli PNP, the “rate … by E. coli PNP” value is 320 nanomoles per milligrams per hour. The “rate … by T. vaginalis PNP” value in the data set with T. vaginalis PNP [2] is listed as 10,000 nanomoles per milligrams per hour.

As to `Nc1ncnc2c1ncn2[C@@H]1O[C@@H](CO)[C@@H](O)[C@H]1O` [9-α-L-lyxofuranosyl-adenine], on E. coli PNP, the “rate … by E. coli PNP” value is listed as 3,700 nanomoles per milligrams per hour. In the data set with T. vaginalis PNP [2], the “rate … by T. vaginalis PNP” value is recorded as 22,000 nanomoles per milligrams per hour.

With `Nc1ncnc2c1ncn2[C@@H]1O[C@H](CO)[C@@H](O)[C@@H]1O` [9-β-D-arabinofuranosyl-adenine], the “rate … by E. coli PNP” value on E. coli PNP is listed as 610 nanomoles per milligrams per hour. Also, the “rate … by T. vaginalis PNP” value in the data set on T. vaginalis PNP [2] is reported as 38,000 nanomoles per milligrams per hour.

For `Nc1nc2c(ncn2[C@@H]2O[C@H](CO)[C@@H](O)[C@@H]2O)c(=O)[nH]1` [9-β-D-arabinofuranosyl-guanine], the “rate … by E. coli PNP” value on E. coli PNP is listed as 310 nanomoles per milligrams per hour. Moreover, the “rate … by T. vaginalis PNP” value with T. vaginalis PNP [2] is 16 nanomoles per milligrams per hour.

For the molecule `O=c1[nH]cnc2c1ncn2[C@@H]1O[C@H](CO)[C@@H](O)[C@@H]1O` [9-β-D-arabinofuranosyl-hypoxanthine], the “rate … by E. coli PNP” value on E. coli PNP is 61 nanomoles per milligrams per hour. Besides, the “rate … by T. vaginalis PNP” value with T. vaginalis PNP [2] was 48 nanomoles per milligrams per hour.

For the molecule `Cc1ncnc2c1ncn2[C@@H]1O[C@H](CO)[C@@H](O)[C@H]1O` [9-β-D-ribofuranosyl-6-methylpurine], the “rate … by E. coli PNP” value on E. coli PNP is on record as 96,000 nanomoles per milligrams per hour. Moreover, the “rate … by T. vaginalis PNP” value in the data set with T. vaginalis PNP [2] is reported as 155,000 nanomoles per milligrams per hour.

Regarding `Nc1ncnc2c1ncn2[C@@H]1O[C@H](CO)[C@H](O)[C@H]1O` [9-β-D-xylofuranosyl-adenine], the “rate … by E. coli PNP” value at E. coli PNP is on record as <2 nanomoles per milligrams per hour. Besides, in the data set with T. vaginalis PNP [2], the “rate … by T. vaginalis PNP” value is reported as 2 nanomoles per milligrams per hour.

In the case of `Nc1nc2c(ncn2[C@@H]2O[C@H](CO)[C@@H](O)[C@H]2O)c(=O)[nH]1` [Guanosine, reference compound], at E. coli PNP, the “rate … by E. coli PNP” value was 156,000 nanomoles per milligrams per hour. Further, in the data set on T. vaginalis PNP [2], the “rate … by T. vaginalis PNP” value is recorded as 14,000 nanomoles per milligrams per hour.

Turning to `OC[C@H]1O[C@@H](n2cnc3c(O)ncnc32)[C@H](O)[C@@H]1O` [Inosine, reference compound], the “rate … by E. coli PNP” value at E. coli PNP is 342,000 nanomoles per milligrams per hour. The “rate … by T. vaginalis PNP” value with T. vaginalis PNP [2] is given as 154,000 nanomoles per milligrams per hour.

B1: T. vaginalis PNP: wild-type Trichomonas vaginalis purine nucleoside phosphorylase, amino acid sequence SEQ ID NO: 5 (protein, listed as Trichomonas vaginalis)
chain: MATPHNSAQVGDFAETVLMCGDPLRAKLIAETYLENPKLVNNVRGIQGYTGTYKGKPISVMGHGMGLPSICIYAEELYSTYKVKTIIRVGTCGAIDMDIHTRDIVIFTSAGTNSKINRIRFMDHDYPATASFDVVCALVDAAKELNIPAKVGKGFSTDLFYNPQTELAQLMNKFHFLAVEMESAGLFPIADLYGARAGCICTVSDHILHHEETTAEERQNSFQNMMKIALEAAIKL
Turning to B1, the “F-araA rate of cleavage” value in data set [5] is listed as 30,000 nmoles/mg/hr. Besides, the MeP-dR/F-araA cleavage ratio in data set [5] (setting [7]) is 18. The “MeP-dR rate of cleavage” value in data set [6] is 536,000 nmoles/mg/hr.

B2: Salmonella typhimurium PNP: purine nucleoside phosphorylase of Salmonella typhimurium (protein, UniProt Q8ZJV7 1-239, looked up)
Purine nucleoside …: MATPHINAEMGDFADVVLMPGDPLRAKHIAETFLENVREVNNVRGMLGFTGTYKGRKISVMGHGMGIPSCSIYTKELITDFGVKKIIRVGSCGAVRMDVKLRDVVIGMGACTDSKVNRIRFKDHDFAAIADFDMVRNAVDAAKALGVDARVGNLFSADLFYSPDGEMFDVMEKYGVLGVEMEAAGIYGVAAEFGAKALTICTVSDHIRTHEQTTAAERQTTFNDMIKIALESVLLGDKE
On to B2, for which the “F-araA rate of cleavage” value in data set [5] was 20 nmol/mg/h. In addition, the MeP-dR/F-araA cleavage ratio in data set [5] (setting [7]) is listed as 458. Further, the “MeP-dR rate of cleavage” value in data set [6] is on record as 9,150 nmoles/mg/hr.

B3: E. coli PNP: wild-type E. coli purine nucleoside phosphorylase (protein, UniProt P0ABP8 2-239, looked up)
Purine nucleoside …: ATPHINAEMGDFADVVLMPGDPLRAKYIAETFLEDAREVNNVRGMLGFTGTYKGRKISVMGHGMGIPSCSIYTKELITDFGVKKIIRVGSCGAVLPHVKLRDVVIGMGACTDSKVNRIRFKDHDFAAIADFDMVRNAVDAAKALGIDARVGNLFSADLFYSPDGEMFDVMEKYGILGVEMEAAGIYGVAAEFGAKALTICTVSDHIRTHEQTTAAERQTTFNDMIKIALESVLLGDKE
For B3, in data set [5], the MeP-dR/F-araA cleavage ratio came to 422 and the “F-araA rate of cleavage” value was 1,250 nmoles/mg/hr. Besides, in data set [6], the “MeP-dR rate of cleavage” value is recorded as 528,000 nmoles/mg/hr.

B4: E. Coli PNP mutant M65V (protein, UniProt P0ABP8 2-239, looked up, variant M65V)
Purine nucleoside …: B3 Purine nucleoside … with M64V
For B4, the MeP-dR/F-araA cleavage ratio in data set [5] amounted to 469±52; in data set [5] (setting [7]), 469; in data set [5] (purified enzyme), 593. Moreover, the “F-araA rate of cleavage” value in data set [5] amounted to 3.9 nmol/mg/h. The “MeP-dR rate of cleavage” value in data set [6] amounted to 1823 nmol/mg/h.

B5: human PNP: human purine nucleoside phosphorylase (protein, UniProt P00491 1-289, looked up)
Purine nucleoside …: MENGYTYEDYKNTAEWLLSHTKHRPQVAIICGSGLGGLTDKLTQAQIFDYGEIPNFPRSTVPGHAGRLVFGFLNGRACVMMQGRFHMYEGYPLWKVTFPVRVFHLLGVDTLVVTNAAGGLNPKFEVGDIMLIRDHINLPGFSGQNPLRGPNDERFGDRFPAMSDAYDRTMRQRALSTWKQMGEQRELQEGTYVMVAGPSFETVAECRVLQKLGADAVGMSTVPEVIVARHCGLRVFGFSLITNKVIMDYESLEKANHEEVLAAGKQAAQKLEQFVSILMASIPLPDKAS
Regarding B5, in data set [5], the “F-araA rate of cleavage” value is less than 1 nmol/mg/h. Moreover, the MeP-dR/F-araA cleavage ratio in data set [5] (setting [7]) is on record as greater than 35. Moreover, the “MeP-dR rate of cleavage” value in data set [6] turned out to be 35 nmol/mg/h.
